Results taken from patent US20100130432A1, “Non-Natural Amino Acids and Neurotensin Analogues Thereof” (priority 2005, published 2010).
Non-standard residues stand in square brackets, D forms with d. Residues, ends and D or L forms follow the SMILES beside them. *: point of attachment. Tle = CC(C)(C)[C@H](N)C(=O)O; X1 = C[C@@H](CCCCCN)C(=O)*

Columns and labels:
rats = experiment: Hotplate assay; assay type: in vivo, rat
From the text: Animals. Experimentally naïve male Sprague-Dawley rats from Charles River Laboratories, Raleigh, N.C. (230-260 g) or Harlan, Prattville Ala. (240-280 g), were maintained 4 per cage in animal quarters on a regular light/dark cycle (lights on 0600-1800) with ad libitum food and water for approximately 1 week before the experiment. The range of body weights on the 2 days of testing was 230-260 grams. The experiment was done on one day, with animals allowed to recover for three days before experiments are repeated.
Peptide Preparation. Test articles are prepared at the desired concentration in saline for either IP injection or gavage administration with N=6 for each dose and vehicle. Morphine (5 mg/kg) is used as a control for certain protocols. […] Apomorphine HCl (Sigma-Aldrich, St. Louis, Mo.) was dissolved in distilled water at a concentration of 5 mg/mL within 40 minutes of administration for injection at 1 mL/kg S.C. to give a dose of 5 mg/kg. When complete ED50s are determined, dosing range of the peptide will be 10, 3, 1, 0.3, 0.1 of the estimated ED50, covering two log orders of range.
The Hotplate Assay. The hotplate assay, a standard rat model for […] pain (see Le Bars et al., Pharmacol. Rev. 53: 597-652 (2001) and Chapman et al., Pain 22:1-31 (2002)), was performed as follows. A hotplate maintained at 52° C. to 53° C. was enclosed on four sides in a plexiglass chamber that extended 6 in. above the plate. Animals were placed on the plate, and the latency between the time a rat was placed on the surface and when it lifts or licks a back paw (indicative of pain sensation) was determined. Animals are removed immediately at the cutoff latency of 30 seconds. Assays are scored as the percent of maximal possible effect (% MPE) defined as 100%, which corresponds to the rats remaining on the hotplate for 30 seconds without responding. Thus, % MPE are calculated using the following equation: % MPE=[(post-drug latency−pre-drug latency)/(cut-off pre-drug latency)]×100%. N=6 or greater for all experiments.
Tmax indicates the time after dosing in which a maximum response was observed.

[1] = tested on: L5178Y TK+/−mouse lymphoma cells; conditions: initial data, with and without S9

CC(C)C[C@H](NC(=O)[C@@H](NC(=O)[C@H](Cc1ccc(O)cc1)NC(=O)[C@@H]1CCCN1C(=O)[C@H](CCCNC(=N)N)NC(=O)[C@@H](C)CCCCCN)C(C)(C)C)C(=O)O [ABS201, hLys-Arg-Pro-Tyr-t-Leu-Leu] (X1-RPY[Tle]L-OH)
analgesic activity (% MPE) compared with morphine (rats; ABS201 5 mg/kg, Morphine 5 mg/kg): comparable in extent and duration to morphine
tolerance to the analgesic activity (rats; dosed daily for five days): do not become tolerant
MPE (I.P.) (rats; hotplate, IP at 10 mg/kg): 100%
Tmax (I.P.) of % MPE (rats; hotplate, IP at 10 mg/kg): 15-45
MPE (oral) (rats; hotplate, orally at 20 mg/kg): 39%
Tmax (Oral) of % MPE (rats; hotplate, orally at 20 mg/kg): 30
mouse lymphoma study result [1]: inactive
